Earlier results, collected in US20070142447A1, “Veterinary composition comprising an arylpyrazole and a nitroenamine with enhanced antiparasitic activity” (Intervet International B.V., priority 2004, published 2007).
Read-outs that look alike come from different tables or passages of the source.

How the values were obtained:
[1] = cats
[2] = dogs
[3] = test system: fleas; conditions: after 72 hours

SMILES: CCN(Cc1ccc(Cl)nc1)/C(=C/[N+](=O)[O-])NC [nitenpyram, (E)-N-(6-chloro-pyridin-3-ylmethyl)-N-ethyl-N-methyl-2-methyl-2-nitrovinylidenediamine]
- half-life in the blood [1]: 7.7 h
- mean residence time [1]: 10.2 h
- half-life in the blood [2]: 2.8 h
- mean residence time [2]: 4.1 h
- lethality of nitenpyram levels in host blood to fleas [3]: not lethal to fleas
